{
  "source": "patent US20100210567A1",
  "about": "“USE OF A TUFTSIN AS A THERAPEUTIC AGENT” (priority 2007, published 2010)",
  "key": {"[1]": {"test_system": "MRSA", "details": "5 micrograms per ml"}, "[2]": {"test": "in vitro", "details": "human", "protocol": "HepG2-2.2.15 is a stable cell line containing the hepatitis B virus (HBV) ayw strain genome (ATCC Cat. No. CRL-11997). […] After 16-24 hours the confluent monolayer of HepG2-2.2.15 cells was washed and the medium was replaced with complete medium containing test peptide—10 micrograms per ml—in duplicate. […] Three days later the culture medium was replaced with fresh medium containing the peptide. Six days following the initial administration of the peptide, the cell culture supernatants was collected, treated with pronase and DNAse and then used in a real-time quantitative TaqMan PCR assay. The PCR-amplified HBV DNA was detected in real-time by monitoring increases in fluorescence signals that result from the exonucleolytic degradation of a quenched fluorescence probe molecule that hybridizes to the amplified HBV DNA. For each PCR amplification, a standard curve was simultaneously generated using dilutions of purified HBV DNA. Antiviral activity was calculated from the reduction in HBV DNA levels (% virus control). A novel dye uptake assay was then employed to measure cell viability, which is used to calculate toxicity (% cell control)."}, "[3]": {"test": "in vitro", "assay_type": "cell-based", "details": "human, MRC-5 cells"}, "[4]": {"test": "in vitro", "details": "human, CEM-SS cells"}, "[5]": {"test_system": "Streptococcus pneumoniae", "assay_type": "cell-based", "details": "5 micrograms per ml"}, "[6]": {"test_system": "Pseudomonas aeruginosa", "assay_type": "cell-based", "details": "5 micrograms per ml"}},
  "note": "Residues, ends and D or L forms follow the SMILES beside them.",
  "data": [
    {"molecule": "C[C@@H](O)[C@H](N)C(=O)N[C@@H](CCCCN)C(=O)N1CCC[C@H]1C(=O)N[C@@H](CCCNC(=N)N)C(=O)O", "note": "[Tuftsin, Thr-Lys-Pro-Arg-OH] (H-TKPR-OH)", "values": [
      {"measurement": "% inhibition", "setting": "[1]", "result": 0.0, "unit": "%"},
      {"measurement": "viability at 144 h, 10 micrograms per ml", "setting": "[2]", "result": 100, "unit": "%"},
      {"measurement": "viability at 144 h", "setting": "[3]", "result": 100, "unit": "%"},
      {"measurement": "viability at 10 micrograms per ml", "setting": "[4]", "result": 100, "unit": "%"},
      {"measurement": "% inhibition", "setting": "[5]", "result": 0.0, "unit": "%"},
      {"measurement": "% inhibition", "setting": "[6]", "result": 0.0, "unit": "%"}
    ]}
  ]
}
